Measurements: US8389011B2, “Pharmaceutical compositions of cholesteryl ester transfer protein inhibitors” (Bend Research, Inc., priority 2000, dated 2013)

Experiment: Solubility in water
Type: physicochemical
Details: aqueous solubility determined at about 22° C. unless otherwise specified, read-out: solubility in water
Excerpt: The invention is useful for CETP inhibitors which have sufficiently low aqueous solubility, low bioavailability or slow rate of absorption such that it is desirable to increase their concentration in an aqueous environment of use. Therefore, anytime one finds it desirable to raise the aqueous concentration of the CETP inhibitor in a use environment, the invention will find utility.

## CCOC(=O)N1c2cc3c(cc2[C@@H](N(Cc2cc(C(F)(F)F)cc(C(F)(F)F)c2)C(=O)OC)C[C@H]1C)CCC3 [Drug 6, [2R,4S]4-[(3,5-bis-trifluoromethyl-benzyl)-methoxycarbonyl-amino]-2-methyl-2,3,4,6,7,8-hexahydro-cyclopenta[g]quinoline-1-carboxylic acid ethyl ester]
  solubility: < 1 µg/mL

## CCc1cc(Oc2cccc(N(Cc3cccc(OC(F)(F)C(F)F)c3)C[C@@H](O)C(F)(F)F)c2)ccc1Cl [Drug 11, (2R)-3-[[3-(4-chloro-3-ethylphenoxy)phenyl][[3-(1,1,2,2-tetrafluoroethoxy)phenyl]methyl]amino]-1,1,1-trifluoro-2-propanol]
  solubility: < 1 µg/mL
